Measured values from the supplement of paper PMC11562712.

Assay: first-order primary biodegradation rate constant k (sorption-corrected, fDis-corrected) (d-1); higher = faster biodegradation
In short: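 Each of 129 compounds was spiked at 1 μg L^–1 into river water containing sieved sediment (50 g wet solid L^–1) from German, Swiss, Spanish and Greek river segments, then shaken in darkness at 20.5 ± 3.5 °C, the river water temperature, for 10 days in three replicates. Filtered samples of the water phase were measured by ultra-high-performance liquid chromatography coupled to Orbitrap tandem mass spectrometry. First-order k values came from log peak-area regression, corrected for sorption-control dissipation under azide sterilisation and divided by dissolved fraction, and invalid fits were left out.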

[1] = river segment: Germany (DE) H_Contam, incubation temperature 24 °C
[2] = river segment: Germany (DE) T_Contam, incubation temperature 24 °C
[3] = river segment: Spain (ES) C_Contam, incubation temperature 24 °C
[4] = river segment: Switzerland (CH) U_Pris, incubation temperature 17 °C
[5] = river segment: Germany (DE) T_Pris, incubation temperature 24 °C
[6] = river segment: Greece (EL) A_Contam, incubation temperature 19 °C
[7] = river segment: Greece (EL) G_Contam, incubation temperature 19 °C
[8] = river segment: Greece (EL) G_Pris, incubation temperature 19 °C
[9] = river segment: Greece (EL) L_Contam, incubation temperature 19 °C
[10] = river segment: Spain (ES) B_Contam, incubation temperature 24 °C
[11] = river segment: Spain (ES) L_Contam, incubation temperature 24 °C
[12] = river segment: Switzerland (CH) C_Contam, incubation temperature 17 °C
[13] = river segment: Switzerland (CH) R_Contam, incubation temperature 17 °C
[14] = river segment: Switzerland (CH) U_Contam, incubation temperature 17 °C
[15] = river segment: Spain (ES) F_Pris_Salt, incubation temperature 24 °C

Compound	first-order primary biodegradation rate constant k [1]	first-order primary biodegradation rate constant k [2]	first-order primary biodegradation rate constant k [3]	first-order primary biodegradation rate constant k [4]	first-order primary biodegradation rate constant k [5]	first-order primary biodegradation rate constant k [6]	first-order primary biodegradation rate constant k [7]	first-order primary biodegradation rate constant k [8]	first-order primary biodegradation rate constant k [9]	first-order primary biodegradation rate constant k [10]	first-order primary biodegradation rate constant k [11]	first-order primary biodegradation rate constant k [12]	first-order primary biodegradation rate constant k [13]	first-order primary biodegradation rate constant k [14]	first-order primary biodegradation rate constant k [15]
O=[N+]([O-])/N=C1\NCCN1Cc1ccc(Cl)nc1 [Imidacloprid]	0.029	0.0495	0.0128	0.00932											
Cc1ccc(C(C)NC(=O)[C@@H](NC(=O)OC(C)C)C(C)C)cc1 (some centres undefined) [Iprovalicarb]	0.251	0.275	0.115	0.146	0.0361	0.258	0.16	0.138	0.096	0.211	0.203	0.0585	0.123	0.167	
CC(C)(C)C(=O)C(Oc1ccc(Cl)cc1)n1ccnc1 (centres undefined) [Climbazole]		0.282	0.0396	0.68			9.42			0.421		0.0523		1.6	0.0487
c1ccc([C@H]2CN3CCSC3=N2)cc1 [Levamisole]		0.512	0.0263	0.0682	0.0857	0.193		0.133	0.21	0.0276	0.0585	0.0196	0.0447	0.0845	
O=C1Nc2ccc(Cl)cc2C(c2ccccc2)=NC1O (centres undefined) [Oxazepam]	0.0405	0.0412	0.124	0.00813					0.027		0.0149			0.0242	
Nc1nnc(-c2cccc(Cl)c2Cl)c(N)n1 [Lamotrigine]		0.0823					0.337	0.0465	0.0519						
CC(C)NCC(O)c1ccc(NS(C)(=O)=O)cc1 (centres undefined) [Sotalol]	0.132	0.195	0.232	0.171	0.076	0.193	0.107	0.0804	0.337	0.147	0.217	0.0406	0.0937	0.108	0.0178
NC(=O)c1cn(Cc2c(F)cccc2F)nn1 [Rufinamide]	0.387	1.31	0.286	1.15	0.365	1.16	0.652	2.31	1.2	0.38	0.565	0.44	0.57	0.383	0.221
CCCCC(CC)COCC(O)CO (centres undefined) [3-((2-Ethylhexyl)oxy)propane-1,2-diol]	1.43					0.277	1.93		5.22		0.469	6.13	0.288	0.0899	
CO[C@@H]1[C@@H](OC(N)=O)[C@@H](O)[C@H](Oc2ccc3c(O)c(NC(=O)c4ccc(O)c(CC=C(C)C)c4)c(=O)oc3c2C)OC1(C)C [Novobiocin]					0.212		0.108		7.88						0.145
CCOC(=O)C1CC(=O)C(=C(O)C2CC2)C(=O)C1 (centres undefined) [Trinexapac-ethyl]	0.0565	0.461	0.0822	0.195	0.0811	0.435	0.0205	0.252	0.256	0.337	0.373	0.0493	0.149	0.178	
CC1(C(=O)Nc2ccc(O)c(Cl)c2Cl)CCCCC1 [Fenhexamid]	0.151	0.656	0.109	0.988	0.165	0.189		0.641	0.493		0.189		0.0432		0.0571
CC1(C)C[C@@H]1C(=O)N/C(=C\CCCCSC[C@H](N)C(=O)O)C(=O)O [Cilastatin]	5.75	5.89	7.57	10.7	4.29	7.64	5.93	22	5.07	10.1	12.5	7.85	7.32	7.54	8.78
CC(C)NCC(O)COc1ccc(COCCOC(C)C)cc1 (centres undefined) [Bisoprolol]	0.341	0.352	0.414	0.772	0.336		0.37	0.293	1.27	0.569	0.28	0.326	0.309	0.473	0.144
Nc1nc(NC2CC2)c2ncn([C@H]3C=C[C@@H](CO)C3)c2n1 [Abacavir]	1.6	1.17	0.639	1.5	1.37	2.15	1.43	2.35	12		2.21	0.83	1.18	1.47	0.449
COc1ccc(NC(=O)N(C)C)cc1Cl [Metoxuron]	0.0437	0.106			0.0159	0.209	0.0278	0.333	0.0742		0.0285			0.022	
Cc1cc(O)cc(C)c1Cl [4-Chloro-3,5-dimethylphenol]	1.4	2.27	2.41	4.31	1.68	2.03	0.169	3.52	3.5		4.19				0.228
